For the data set, the system named is APOE4 mice. In words: Barnes maze (spatial learning and memory) after doxorubicin treatment in APOE4 mice. Format: in vivo, mouse. The conditions noted are these: female APOE4 mice. The procedure: A study was conducted to evaluate the effects of RAGE inhibition on preventing CRCD. The study was performed using a mouse model of C57BL/6 J mice having the human APOE4 allele in the mouse APOE gene locus.
In the study, 24 female APOE mice were divided evenly into three treatment groups: Group 1, which received a vehicle control; Group 2, which received doxorubicin, a chemotherapy medication used to treat a variety of cancers that include breast cancer, bladder cancer, Kaposi's sarcoma, lymphoma, and acute lymphocytic leukemia; and Group 3, which received doxorubicin and FPS-ZM1, RAGE antagonist. Groups 2 and 3 were administered the doxorubicin as two doses of 5 mg/kg, separated by one week. Group 3 was administered 2 mg/kg of FPS-ZMI twice per week by intraperitoneal injection starting one week before the first administration of doxorubicin and continuing throughout the study.
Four weeks after doxorubicin treatment (or the vehicle control) was completed, mice were analyzed for hippocampal based memory via the Barnes maze (San Diego Instruments Inc., San Diego, CA). […] The apparatus was captured by overhead video and assessed using ANY-maze™ software. […]
The time to identify the correct (escape) hole on the final day is compared between groups. Primary latency, defined as the time for the mouse to make a first nose poke into the escape hole, was assessed. […]

This note sets out measurements from patent US20240226065A1, “USE OF RAGE INHIBITORS TO TREAT CANCER-RELATED COGNITIVE DECLINE” (Georgetown University, priority 2021, published 2024).

Consider `O=C(c1ccc(Cl)cc1)N(Cc1ccccc1)C1CCCCC1` [FPS-ZMI], for which the “primary latency (latency to identify the escape hole)” value (Group 3: doxorubicin two doses of 5 mg/kg plus FPS-ZM1 2 mg/kg intraperitoneal twice per week from one week before doxorubicin, training day 4, p=0.12 vs Group 2) is 28.0 s. Take `COc1cccc2c1C(=O)c1c(O)c3c(c(O)c1C2=O)C[C@@](O)(C(=O)CO)C[C@@H]3O[C@H]1C[C@H](N)[C@H](O)[C@H](C)O1` [doxorubicin]: the “primary latency (time to first nose poke into the escape hole)” value (Group 2: doxorubicin two doses of 5 mg/kg one week apart, Barnes maze training day 4, four weeks after doxorubicin, Group 1 control 24.6 seconds) worked out at 58.2 s.
